Data taken from patent US6803372B2, “Spiro compounds” (Banyu Pharmaceutical Co., Ltd., priority 1999, dated 2004).

Columns and labels:
[1] = Isolation of metabolites of compound of example 101; conditions: parent: compound of example 101
human NPY Y5 receptor = molecular target: T1, human NPY Y5 receptor (Homo sapiens, UniProt Q15761); test: NPY binding inhibition test (Pharmacological Test 1); conditions: [125I]peptideYY, membrane sample from cells expressing NPY Y5 receptor, 25° C., 2 hours; read-out: IC50 of the test compound against specific peptideYY binding
T1 construct: expressed in transfected cells; host or cells: COS-7, CHO and LM(tk-)
T1 sequence (Q15761 1-445): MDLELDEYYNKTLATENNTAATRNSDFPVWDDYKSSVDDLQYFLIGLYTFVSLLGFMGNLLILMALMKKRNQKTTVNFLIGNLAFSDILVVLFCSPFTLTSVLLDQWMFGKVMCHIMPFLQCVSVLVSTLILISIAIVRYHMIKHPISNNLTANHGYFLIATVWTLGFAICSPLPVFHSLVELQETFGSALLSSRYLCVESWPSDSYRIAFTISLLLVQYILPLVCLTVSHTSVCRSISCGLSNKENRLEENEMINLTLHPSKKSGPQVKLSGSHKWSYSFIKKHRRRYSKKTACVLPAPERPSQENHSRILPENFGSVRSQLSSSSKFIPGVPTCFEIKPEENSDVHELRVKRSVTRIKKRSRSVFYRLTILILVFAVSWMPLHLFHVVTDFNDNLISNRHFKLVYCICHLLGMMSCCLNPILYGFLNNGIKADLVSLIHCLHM
Text: Pharmacological Test 1 (NPY Binding Inhibition Test)
cDNA sequence encoding human NPY Y5 receptor [International patent publication number WO96/16542] was cloned into expression vectors pcDNA3, pRc/RSV (made by Invitrogen Inc.) and pCI-neo (made by Promega Inc.). This obtained expression vectors were transfected to host cells COS-7, CHO and LM(tk-) (American Type Culture Collection) by cationic lipid method [Proceedings of the National Academy of Sciences of the United States of America, 84: 7413(1987)] to give NPY Y5 receptor expression cells.
A membrane sample prepared from the cells which expressed NPY Y5 receptor was incubated together with a test compound and [^125I]peptideYY (NEN) (20,000 cpm) in an assay buffer (25 mM Tris buffer, pH7.4, containing 10 mM magnesium chloride, 1 mM phenylmethylsulfonyl fluoride, 0.1% bacitracin and 0.5% bovine serum albumin) at 25° C. for 2 hours, then filtered through a glass filter GF/C and washed with 5 mM Tris buffer (pH7.4) containing 0.3% BSA. The radioactivity of the cake on the glass filter was measured. Nonspecific binding was measured in the presence of 1 μM peptideYY and a 50% Inhibitory Concentration (IC50) of the test compound against specific peptideYY binding was determined [Endocrinology, 131: 2090(1992)].

IC50 (human NPY Y5 receptor)	melting point	SMILES	isolated as metabolite [1]
3 nM	–	O=C1OC2(CCC(C(=O)Nc3ccn(-c4ccc(O)cc4F)n3)CC2)c2cnccc21 (stereo not drawn) [Example 108, trans-N-[1-(2-fluoro-4-hydroxyphenyl)-3-pyrazolyl]-3-oxospiro[6-azaisobenzofuran-1(3H),1′-cyclohexane]-4′-carboxamide]	isolated as metabolites of compound of example 101
4.6 nM	–	O=C1OC2(CCC(C(=O)Nc3ccn(-c4ccccc4F)n3)CC2)c2c[n+]([O-])ccc21 (stereo not drawn) [Example 107, trans-N-[1-(2-fluorophenyl)-3-pyrazolyl]-3-oxospiro[6-azaisobenzofuran-1(3H),1′-cyclohexane]-4′-carboxamide 6-oxide]	isolated as metabolites of compound of example 101

The remaining lines, values behind:

SMILES	IC50 (human NPY Y5 receptor)	melting point	isolated as metabolite [1]
O=C1OC2(CCC(O)(C(=O)Nc3ccn(-c4ccccc4F)n3)CC2)c2cnccc21 (stereo not drawn) [Example 109, cis-N-[1-(2-fluorophenyl)-3-pyrazolyl]-4′-hydroxy-3-oxospiro[6-azaisobenzofuran-1(3H),1′-cyclohexane]-4′-carboxamide]	–	–	isolated as metabolites of compound of example 101
O=C1OC2(CCN(C(=O)Nc3ccc4ncc(C(F)(F)F)cc4n3)CC2)c2ccccc21 [Example 26, 3-Oxo-N-(7-trifluoromethylpyrido[3,2-b]pyridin-2-yl)-spiro[isobenzofuran-1(3H),4′-piperidine]-1′-carboxamide]	2.5 nM	246 to 248 °C	–
O=C1Cc2ccccc2C2(CCN(C(=O)Nc3cn(-c4ccc5ccccc5n4)cn3)CC2)N1 [Example 9, 3,4-Dihydro-3-oxo-N-[1-(2-quinolyl)-4-imidazolyl]spiro[isoquinoline-1(2H),4′-piperidine]-1′-carboxamide]	0.72 nM	264 to 266 °C	–
